Measurements published in PubChem BioAssay AID1963973 (Molecular Pharmacology Branch, DTP, NCI, 2024).
pIC50: −log10 of the molar value.

Test system: 883617-216-R-J1-PDC tumor spheroids, viability
Experiment: Anticancer human tumor 883617-216-R-J1-PDC patient-derived bladder carcinoma cell line growth inhibition [PI3K]
Settings: spheroids with HUVEC and MSC; for pIC50: curve of first compound; for viability, T/C: stronger effect = lower value
In short: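 Multi-cell spheroids combine tumor cells with HUVEC and human MSCs, treated with targeted agents alone or with inavolisib, alpelisib, duvelisib or copanlisib. Concentrations fall in half-log steps from at or near clinical Cmax, or from 10 microM where Cmax is unknown; viability read-out.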

[1] = second compound 0.0316 µM, first compound 0.0316 µM
[2] = second compound 0.0316 µM, first compound 0.1 µM
[3] = second compound 0.0316 µM, first compound 0.316 µM
[4] = second compound 0.0316 µM, first compound 1 µM
[5] = second compound 0.0316 µM, first compound 3.16 µM
[6] = second compound 0.0316 µM, first compound 10 µM
[7] = second compound 0.1 µM, first compound 0.0316 µM
[8] = second compound 0.1 µM, first compound 0.1 µM
[9] = second compound 0.1 µM, first compound 0.316 µM
[10] = second compound 0.1 µM, first compound 1 µM
[11] = second compound 0.1 µM, first compound 3.16 µM
[12] = second compound 0.1 µM, first compound 10 µM
[13] = second compound 0.316 µM, first compound 0.0316 µM
[14] = second compound 0.316 µM, first compound 0.1 µM
[15] = second compound 0.316 µM, first compound 0.316 µM
[16] = second compound 0.316 µM, first compound 1 µM
[17] = second compound 0.316 µM, first compound 3.16 µM
[18] = second compound 0.316 µM, first compound 10 µM
[19] = second compound 1 µM, first compound 0.0316 µM
[20] = second compound 1 µM, first compound 0.1 µM
[21] = second compound 1 µM, first compound 0.316 µM
[22] = second compound 1 µM, first compound 1 µM
[23] = second compound 1 µM, first compound 3.16 µM
[24] = second compound 1 µM, first compound 10 µM
[25] = second compound 3.16 µM, first compound 0.0316 µM
[26] = second compound 3.16 µM, first compound 0.1 µM
[27] = second compound 3.16 µM, first compound 0.316 µM
[28] = second compound 3.16 µM, first compound 1 µM
[29] = second compound 3.16 µM, first compound 3.16 µM
[30] = second compound 3.16 µM, first compound 10 µM
[31] = second compound 10 µM, first compound 0.0316 µM
[32] = second compound 10 µM, first compound 0.1 µM
[33] = second compound 10 µM, first compound 0.316 µM
[34] = second compound 10 µM, first compound 1 µM
[35] = second compound 10 µM, first compound 3.16 µM
[36] = second compound 10 µM, first compound 10 µM
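Further: spheroids exposed to agents for 7 days before the viability read.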

## C=CC(=O)N1CCN(c2nc(=O)n(-c3c(C)ccnc3C(C)C)c3nc(-c4c(O)cccc4F)c(F)cc23)C(C)C1 (stereo not drawn) + CC(Nc1ncnc2nc[nH]c12)c1cc2cccc(Cl)c2c(=O)n1-c1ccccc1
Second compound 0.0316 µM
  pIC50: < 5.00
Second compound 0.1 µM
  pIC50: < 5.00
Second compound 0.316 µM
  pIC50: > 7.50
Second compound 1 µM
  pIC50: 7.13
Second compound 3.16 µM
  pIC50: > 7.50
Second compound 10 µM
  pIC50: > 7.50
[1]
  viability, T/C: 59.4%
[2]
  viability, T/C: 41.1%
[3]
  viability, T/C: 49.5%
[4]
  viability, T/C: 55.3%
[5]
  viability, T/C: 59.9%
[6]
  viability, T/C: 64.2%
[7]
  viability, T/C: 60.9%
[8]
  viability, T/C: 46.9%
[9]
  viability, T/C: 48.4%
[10]
  viability, T/C: 57.9%
[11]
  viability, T/C: 63.4%
[12]
  viability, T/C: 62%
[13]
  viability, T/C: 55.9%
[14]
  viability, T/C: 43.4%
[15]
  viability, T/C: 40.8%
[16]
  viability, T/C: 59.1%
[17]
  viability, T/C: 48.7%
[18]
  viability, T/C: 54.8%
[19]
  viability, T/C: 63.3%
[20]
  viability, T/C: 45.2%
[21]
  viability, T/C: 43%
[22]
  viability, T/C: 45.7%
[23]
  viability, T/C: 37.1%
[24]
  viability, T/C: 45.6%
[25]
  viability, T/C: 43.2%
[26]
  viability, T/C: 36.2%
[27]
  viability, T/C: 27.2%
[28]
  viability, T/C: 37.5%
[29]
  viability, T/C: 37.6%
[30]
  viability, T/C: 45.4%
[31]
  viability, T/C: 26.1%
[32]
  viability, T/C: 20.1%
[33]
  viability, T/C: 19.6%
[34]
  viability, T/C: 21.9%
[35]
  viability, T/C: 28.8%
[36]
  viability, T/C: 31.7%

## CCN1CCN(Cc2ccc(Nc3ncc(F)c(-c4cc(F)c5nc(C)n(C(C)C)c5c4)n3)nc2)CC1 + CC(Nc1ncnc2nc[nH]c12)c1cc2cccc(Cl)c2c(=O)n1-c1ccccc1
Second compound 0.0316 µM
  pIC50: < 6.00
Second compound 0.1 µM
  pIC50: < 6.00
Second compound 0.316 µM
  pIC50: 6.24
Second compound 1 µM
  pIC50: 6.55
Second compound 3.16 µM
  pIC50: 7.50
Second compound 10 µM
  pIC50: 8.47
Second compound 0.0316 µM, first compound 0.00316 µM
  viability, T/C: 91.4%
Second compound 0.0316 µM, first compound 0.01 µM
  viability, T/C: 79.4%
[1]
  viability, T/C: 79.2%
[2]
  viability, T/C: 65.7%
[3]
  viability, T/C: 56.3%
[4]
  viability, T/C: 51.3%
Second compound 0.1 µM, first compound 0.00316 µM
  viability, T/C: 89.3%
Second compound 0.1 µM, first compound 0.01 µM
  viability, T/C: 88.8%
[7]
  viability, T/C: 71.6%
[8]
  viability, T/C: 60.2%
[9]
  viability, T/C: 64.1%
[10]
  viability, T/C: 50.7%
Second compound 0.316 µM, first compound 0.00316 µM
  viability, T/C: 87.5%
Second compound 0.316 µM, first compound 0.01 µM
  viability, T/C: 78.4%
[13]
  viability, T/C: 60.8%
[14]
  viability, T/C: 67.8%
[15]
  viability, T/C: 46%
[16]
  viability, T/C: 49.6%
Second compound 1 µM, first compound 0.00316 µM
  viability, T/C: 69.6%
Second compound 1 µM, first compound 0.01 µM
  viability, T/C: 69.4%
[19]
  viability, T/C: 59.3%
[20]
  viability, T/C: 52.2%
[21]
  viability, T/C: 54.8%
[22]
  viability, T/C: 40.2%
Second compound 3.16 µM, first compound 0.00316 µM
  viability, T/C: 72.5%
Second compound 3.16 µM, first compound 0.01 µM
  viability, T/C: 61.9%
[25]
  viability, T/C: 50.3%
[26]
  viability, T/C: 40.7%
[27]
  viability, T/C: 40.1%
[28]
  viability, T/C: 35.2%
Second compound 10 µM, first compound 0.00316 µM
  viability, T/C: 51.3%
Second compound 10 µM, first compound 0.01 µM
  viability, T/C: 34.8%
[31]
  viability, T/C: 34%
[32]
  viability, T/C: 30.8%
[33]
  viability, T/C: 28.1%
[34]
  viability, T/C: 27%

## Cn1ncc(Cl)c1-c1cc(C(=O)NC(CN)Cc2cccc(F)c2)sc1Cl (stereo not drawn) + CC(Nc1ncnc2nc[nH]c12)c1cc2cccc(Cl)c2c(=O)n1-c1ccccc1
Second compound 0.0316 µM
  pIC50: 6.29
Second compound 0.1 µM
  pIC50: 6.35
Second compound 0.316 µM
  pIC50: 6.27
Second compound 1 µM
  pIC50: 6.40
Second compound 3.16 µM
  pIC50: 6.59
Second compound 10 µM
  pIC50: > 7.50
[1]
  viability, T/C: 90.3%
[2]
  viability, T/C: 88.7%
[3]
  viability, T/C: 58.2%
[4]
  viability, T/C: 36%
[5]
  viability, T/C: 13.7%
[6]
  viability, T/C: 6.6%
[7]
  viability, T/C: 74.9%
[8]
  viability, T/C: 83.1%
[9]
  viability, T/C: 55.2%
[10]
  viability, T/C: 30.2%
[11]
  viability, T/C: 12.4%
[12]
  viability, T/C: 6.85%
[13]
  viability, T/C: 89%
[14]
  viability, T/C: 89%
[15]
  viability, T/C: 63.1%
[16]
  viability, T/C: 33.9%
[17]
  viability, T/C: 10.6%
[18]
  viability, T/C: 7.26%
[19]
  viability, T/C: 84.4%
[20]
  viability, T/C: 67.1%
[21]
  viability, T/C: 57.9%
[22]
  viability, T/C: 31.8%
[23]
  viability, T/C: 11.7%
[24]
  viability, T/C: 6.93%
[25]
  viability, T/C: 86.4%
[26]
  viability, T/C: 70.1%
[27]
  viability, T/C: 44.6%
[28]
  viability, T/C: 25.6%
[29]
  viability, T/C: 13.2%
[30]
  viability, T/C: 5.57%
[31]
  viability, T/C: 50.3%
[32]
  viability, T/C: 40.3%
[33]
  viability, T/C: 37.1%
[34]
  viability, T/C: 23%
[35]
  viability, T/C: 10.5%
[36]
  viability, T/C: 5.07%

## Cn1nccc1Nc1nccc(-c2ccn(C(CO)c3ccc(Cl)c(F)c3)c(=O)c2)n1 (stereo not drawn) + CC(Nc1ncnc2nc[nH]c12)c1cc2cccc(Cl)c2c(=O)n1-c1ccccc1
Second compound 0.0316 µM
  pIC50: 5.10
Second compound 0.1 µM
  pIC50: 5.28
Second compound 0.316 µM
  pIC50: 5.13
Second compound 1 µM
  pIC50: 5.38
Second compound 3.16 µM
  pIC50: 6.12
Second compound 10 µM
  pIC50: > 7.50
[1]
  viability, T/C: 100%
[2]
  viability, T/C: 90.3%
[3]
  viability, T/C: 72.5%
[4]
  viability, T/C: 67.4%
[5]
  viability, T/C: 66.5%
[6]
  viability, T/C: 43.5%
[7]
  viability, T/C: 87.3%
[8]
  viability, T/C: 86.8%
[9]
  viability, T/C: 70.1%
[10]
  viability, T/C: 62.6%
[11]
  viability, T/C: 65.3%
[12]
  viability, T/C: 38.6%
[13]
  viability, T/C: 88.4%
[14]
  viability, T/C: 71.2%
[15]
  viability, T/C: 71.2%
[16]
  viability, T/C: 66.8%
[17]
  viability, T/C: 64%
[18]
  viability, T/C: 44%
[19]
  viability, T/C: 77.9%
[20]
  viability, T/C: 74.6%
[21]
  viability, T/C: 64.5%
[22]
  viability, T/C: 61%
[23]
  viability, T/C: 52%
[24]
  viability, T/C: 43.6%
[25]
  viability, T/C: 63.7%
[26]
  viability, T/C: 69.5%
[27]
  viability, T/C: 50%
[28]
  viability, T/C: 50.3%
[29]
  viability, T/C: 37.2%
[30]
  viability, T/C: 24.9%
[31]
  viability, T/C: 46.7%
[32]
  viability, T/C: 40.9%
[33]
  viability, T/C: 35.7%
[34]
  viability, T/C: 31.4%
[35]
  viability, T/C: 29.5%
[36]
  viability, T/C: 22.2%
